Assays:
CAT [1] = experiment: In vivo upregulation of CAT in rat brain (Western immunoblot); set-up: species or system Sprague-Dawley rats; settings: for Fold Upregulation of CAT: relative to vehicle
Protocol: (§1) In vivo experiments were carried out in Sprague-Dawley rats (300-325 g) with solutions of L-aspartic acid. The animals were injected intravenously (iv) via the tail vein with L-aspartic acid. Each animal received one injection of L-aspartic acid in normal saline at total dose equivalent of 0.00, 0.75, 1.50, 3.00, and 6.00 mg L-aspartic acid/kg body weight or orally by gavage at a dose equivalent of 0.00 or 60.0 mg/kg body weight. The animals were sacrificed by decapitation at 6 hours post injection and dissected to isolate the brain organs, which were frozen at −70° C. for subsequent analysis by Western immunoblots.
(§2) Each brain tissue was thawed and homogenized in a Down's homogenizer using ten volumes of homogenizer buffer (see, Adams et al., […], 77: 221-233 (2000); buffer as described in Adams et al., J. Leukoc. Biol., 62: 865-875 ([…])) to obtain a crude cytoplasmic fraction. The brain tissue homogenates were centrifuged (14,000×g for 5 minutes at 4° C.) to yield the supernatant purified cytoplasmic protein fractions for Western immunoblot analysis as described in Adams et al. (J. Cell. Biochem., 77: 221-233 (2000)). A 10 μg sample of each protein fraction was then separated by SDS polyacrylamide gel electrophoresis (SDS-PAGE) and analyzed for SOD and CAT content by Western blot assay as above.
(§3) Control for measurement of unstimulated levels of SOD were obtained from vehicle-only (i.e., no L aspartic acid), injected or gavaged rats that were sacrificed at 6 hours post injection. […] Standard quantities of each cytoplasmic fraction (10 μg) were loaded on a lane of a gel for electrophoretic separation and Western immunoblot analysis (Adams et al., J. Cell. Biochem., 77: 221-233 (2000)). The stained gels were photographed and scanned by laser densitometry to quantify intensities in comparison to enzyme levels for control vehicle treated rats.
(§4) The data are expressed as a fold increase relative to control animals that received vehicle only. Intravenous (i.v.) injections were administered as 0.3 ml in normal saline during five minutes. Oral doses were administered as a solution in 1 ml saline by gavage.

SOD [2] = experiment: In vivo upregulation of SOD in rat brain (Western immunoblot); set-up: species or system Sprague-Dawley rats; settings: for Fold Upregulation of SOD: relative to vehicle
Protocol: as §1, §2, §3, §4

[3] = tested on: primary rat cortical cultures; experiment: Tissue culture properties of primary rat cortical cultures; assay type: cell-based; settings: low doses of up to 10 ng/ml in culture
CAT [4] = experiment: Upregulation of CAT in primary rat cortical cultures (Western immunoblot, laser densitometry); assay type: cell-based; settings: for Upregulation (fold increase) CAT: 5 hours, relative to untreated control cultures
Protocol: [The source words this procedure for another target and reports this target under the same test.] (§5) Primary rat cortical cultures were obtained by growing newborn rat brain cortical cells in Delbecco's modified Eagle medium supplemented with 100 units/ml of penicillin G, 100 μg/ml of streptomycin, and 10% fetal calf serum. The cells were isolated from the E-21 cortex of rat brain, plated at a density of 1×10^5 per ml and grown to confluence within four to five days in an atmosphere containing air and 5% CO2 at 37° C. as described in Cornell-Bell et al., Science, 247: 470-473 (1990) and Cell Calcium, 12: 185-204 (1991). Cultures were grown in 20 ml flasks as a monolayer and then exposed to various concentrations of L-aspartic acid for studies of the effect on upregulation of the gene for SOD. Cultures of the rat brain cortical cells were incubated with 0.00, 0.01, 0.13, 1.30, and 13.30 μg/ml L-aspartic acid for durations of 5 hours. Control cultures were treated in the same manner, but were not incubated with L-aspartic acid.
(§6) Cytoplasmic proteins were isolated according to published methods (Adams et al., J. Leukoc. Biol., 62: 865-873 (1997)). The cell cultures were washed once in phosphate buffer saline (PBS) containing 20 mM EDTA and then suspended in 250 μl of freshly prepared lysis buffer (20 mM Hepes, pH 7.9, 10 mM KCl, 300 mM NaCl, 1 mM MgCl2, 0.1% Triton X-100 nonionic detergent, 20% glycerol, 0.5 mM dithiothreitol (DTT), freshly supplemented with inhibitors as described in Adams et al., […]., 77: 221-233 (2000)). The suspensions were then incubated for at least 10 minutes on ice to lyse cells and then centrifuged (14,000×g for 5 minutes at 4° C.) to pellet cell debris. The supernatant cytoplasmic fractions were removed and stored as aliquots at −80° C. for analysis.
(§7) The cytoplasmic proteins were separated by SDS-PAGE using 5 μg/lane on the gels for analysis by Western immunoblots. […] SOD expression was detected in the Western blots using anti-SOD rabbit polyclonal antibody (Rockland, Inc., Gilbertville, Pa.). The Western blots were also analyzed by laser densitometry to quantify SOD protein upregulation. The control in these experiments was an identical culture flask, which was treated only with vehicle (i.e., buffer, no L-aspartic acid).

SOD [5] = experiment: Upregulation of SOD in primary rat cortical cultures (Western immunoblot, laser densitometry); assay type: cell-based; settings: for Upregulation (fold increase) SOD: 5 hours, relative to untreated control cultures
Protocol: as §5, §6, §7

Sprague-Dawley rats = experiment: In vivo observations of toxicity and behaviour after dosing; settings: 60 mg/Kg oral, rat
Protocol: as §1
At 6 mg/Kg, upregulation of CAT became higher than SOD. The compound is also active orally, but in that case, a dose of 60 mg/Kg must be used in the rat to see an effect.

[6] = 0.75 mg/kg i.v., rat brain, 6 hours post injection
[7] = 1.50 mg/kg i.v., rat brain, 6 hours post injection
[8] = 3.00 mg/kg i.v., rat brain, 6 hours post injection
[9] = 6.00 mg/kg i.v., rat brain, 6 hours post injection
[10] = 60.00 mg/kg oral (gavage), rat brain, 6 hours

SMILES: N[C@@H](CC(=O)O)C(=O)O [Aspartic Acid, L-aspartic acid]
- Fold Upregulation of CAT (CAT [1]; [6]): 1.0 fold
- Fold Upregulation of CAT (CAT [1]; [7]): 1.0 fold
- Fold Upregulation of CAT (CAT [1]; [8]): 1.2 fold
- Fold Upregulation of CAT (CAT [1]; [9]): 2.5 fold
- Fold Upregulation of CAT (CAT [1]; [10]): 3.5 fold
- i.v. dose that must be injected before upregulation of CAT is observed (CAT [1]; i.v., rat brain): 3 mg/kg
- oral dose that must be used to see an effect (CAT upregulation) (CAT [1]; oral, rat): 60 mg/kg
- Fold Upregulation of SOD (SOD [2]; [6]): 1.0 fold
- Fold Upregulation of SOD (SOD [2]; [7]): 1.0 fold
- Fold Upregulation of SOD (SOD [2]; [8]): 1.3 fold
- Fold Upregulation of SOD (SOD [2]; [9]): 1.3 fold
- Fold Upregulation of SOD (SOD [2]; [10]): 2.9 fold
- i.v. dose that must be injected before upregulation of SOD is observed (SOD [2]; i.v., rat brain): 3 mg/kg
- oral dose that must be used to see an effect (SOD upregulation) (SOD [2]; oral, rat): 60 mg/kg
- effect on any aspects of tissue culture properties [3]: no effect
- Upregulation (fold increase) CAT (CAT [4]; 0.01 μg/ml): 1.0 fold increase
- Upregulation (fold increase) CAT (CAT [4]; 0.13 μg/ml): 1.0 fold increase
- CAT upregulation (CAT [4]; 1.3 μg/ml): upregulated
- Upregulation (fold increase) CAT (CAT [4]; 1.30 μg/ml): 2.3 fold increase
- Upregulation (fold increase) CAT (CAT [4]; 13.30 μg/ml): 3.7 fold increase
- Upregulation (fold increase) SOD (SOD [5]; 0.01 μg/ml): 1.0 fold increase
- SOD upregulation (SOD [5]; 130 ng/ml): upregulation of SOD
- Upregulation (fold increase) SOD (SOD [5]; 0.13 μg/ml): 1.6 fold increase
- SOD upregulation (SOD [5]; 1.3 μg/ml): upregulated
- Upregulation (fold increase) SOD (SOD [5]; 1.30 μg/ml): 2.1 fold increase
- SOD increase by Western blot (SOD [5]; 13.3 μg/ml): substantial increase
- Upregulation (fold increase) SOD (SOD [5]; 13.30 μg/ml): 3.5 fold increase
- effect on SOD upregulation (SOD [5]; low doses of up to 10 ng/ml in culture): no effect
- toxic effect (Sprague-Dawley rats): no toxic effect

— patent US20050130881A1, “Single amino acid based compounds for counteracting effects of reactive oxygen species and free radicals” (priority 2001, published 2005)
